In a melting point compilation (Tetko et al.; mined from patent text by program, amines drawn as free bases though some values may be those of a salt):

melting point | Structure (SMILES)
146 to 148 °C | Cc1cccc(-c2[nH]c(C(C)C)nc2-c2cccc(-c3ccc(NC(=O)NN4CCOCC4)cc3)c2)n1
168 °C | CCOC(=O)C1=C(C)NC(C)=C([N+](=O)[O-])C1c1cccc(Cl)c1 (centres undefined)
208 °C | CC(=O)Nc1ccc(C(=O)O)cc1OCCO
117 to 120 °C | CC(C)(C=NO)n1ccnc1
105 to 108 °C | CC(CC#N)n1nnc2cc3c(=O)n(C(C)Cn4ncnn4)nnc3cc2c1=O (centres undefined)
190 to 191 °C | COc1ccc(OCC(N)=O)c([N+](=O)[O-])c1
133 to 136 °C | COc1ccccc1-c1ccc(-c2ccc(C(=O)O)cc2)cc1-c1ccc2c(c1)C(C)(C)CCC2(C)C
166 to 167 °C | O=C(O)CCc1cc(C(c2cc(F)ccc2F)S(=O)(=O)c2ccc(C(F)(F)F)cc2)c(Cl)cn1 (centres undefined)
196 to 203 °C | CC(=O)NC(C)C1=NN(Cc2ccccc2)C(C)NC1=O (centres undefined)
212 °C | CC1(C)CCC(C)(C)c2c(OCc3ccc(F)cc3)cc(C(O)c3ccc4cc(C(=O)O)ccc4c3)cc21 (centres undefined)
114 to 115 °C | C=C(C)COc1ccc(C(=O)C=Cc2ccccc2)c(O)c1
239 to 240 °C | CC1(c2ccc(O)c([N+](=O)[O-])c2)C(=O)Nc2cc(Cl)cc(Cl)c2C1=O (centres undefined)
135 to 136 °C | CCCCn1c(=O)c2c(ncn2S(=O)(=O)c2cccc3ccccc23)n(CCCC)c1=O
160 to 163 °C | Cc1cc(C#N)c2c(c1C)C(=O)CC2
231 to 232 °C | COc1cc(OCc2ccccn2)ccc1/C=C/c1cc(/C=C/c2cc3ccccc3s2)n[nH]1
222 to 224 °C | O=C(O)Cc1cccc2c(=O)cc(-c3cc(F)ccc3F)oc12
202 to 203 °C | COc1ccc2c(c1)C(=O)CC1(CCN(c3cc(=O)n(C)c(=O)n3C)CC1)O2
191 °C | Cc1cc2c(cc1N(C)CC(C)C)N=C(c1cccc(-n3ncnc3CO)c1)CC(=O)N2
235 to 236 °C | COc1cccc(C2=Nc3ccc(N4CCOCC4)cc3C(=O)C2)c1OC
57 to 60 °C | CCCCCCCCCCCCCCCCCCOc1cccc(C(=O)OC)c1O
169 to 171 °C | CC(C)(C)OC(=O)N1CCC(c2nc3cc(-c4ccc(C(N)=O)c(Cl)c4)ccc3o2)CC1
130 to 140 °C | CCCCc1nc(CO)c(C(=O)O)n1Cc1ccc(-c2ccccc2C(=O)O)cc1
257 to 259 °C | COc1ccc2oc(C(=O)Nc3ccc(-c4ccc(S(=O)(=O)NC(C(=O)O)C(C)C)cc4)cc3)cc2c1 (centres undefined)
160 to 162 °C | C#CC1(COC(C)=O)OC(n2ccc(=O)[nH]c2=O)C(OC(C)=O)C1OC(C)=O (centres undefined)

melting point | Structure (SMILES)
175 to 180 °C | O=[N+]([O-])c1cn2c(n1)O[C@@H](COc1ccc(N3CCC(COc4ccc(C(F)(F)F)cc4)CC3)cc1)C2
118 to 124 °C | CC1(C)CC(NCCNCCNC2CC(C)(C)N(O)C(C)(C)C2)CC(C)(C)N1O
119 to 120 °C | CN(C)CCOC(=O)c1cnn2c(-c3cccc(C(F)(F)F)c3)ccnc12
198 to 199 °C | CC(=O)NC1(c2ccc(Cl)c(C(F)(F)F)c2)CCN(Cc2ccccc2)CC1
215 to 217 °C | O=C1c2cc3nnn(C4CC4)c(=O)c3cc2OC2CCCN12 (centres undefined)
129 to 130 °C | CSc1nc(NC2CCCCC2)c2nonc2n1
192 to 194 °C | CCOC1=NS(=O)(=O)N=C1N[C@@H]1c2cc(OC(F)(F)F)ccc2OC(C)(C)[C@H]1O
268 to 269 °C | O=C1OC(=O)c2cc3cccnc3c3cc([N+](=O)[O-])cc1c23
84 to 85 °C | CO[C@@H]1[C@H](O)[C@@H](CO)O[C@H]1n1cnc2c(N[C@H](C)Cc3ccc(Cl)s3)ncnc21
101 to 103 °C | CCc1cnc(C2=NC(C)(C(C)C)C(=O)N2)c(C(=O)NCCCCCC(=O)OC)c1 (centres undefined)
217 to 218 °C | O=C1CCC(c2ccc(NC3=NCCS3)cc2)=NN1
70 to 73.5 °C | CN1CS(=O)c2ccccc21 (centres undefined)
203 °C | COc1c(F)cc(-c2cncc(OC3SCC(O)C(O)C3O)c2)cc1F (centres undefined)
173 to 175 °C | Clc1cccc(-c2cn3c(n2)sc2ccccc23)c1
309 to 312 °C | Cn1c2cc(OCCO)ccc2c2c3c(c(-c4ccccc4Cl)cc21)C(=O)NC3=O
89 to 90 °C | N#Cc1ncc(Cl)nc1C#N
130 to 132 °C | O=c1ccc(-c2c(-c3ccccc3)nn3ccccc23)nn1Cc1nccs1
180 °C | O=C1c2cccc3cc4ccccc4c(c23)C(=O)N1CCCNCCNCCCN1C(=O)c2cccc3cc4ccccc4c(c23)C1=O
63 to 65 °C | Oc1cc(Cl)ccc1Oc1cccc(Br)c1
142 to 143 °C | CCOC(=O)C1=C(C)NC(CN(C)C)=C(C(=O)OCC)C1c1ccccc1Br (centres undefined)
229 to 231 °C | Cn1c(C(F)(F)C(F)(F)F)cc(=O)n(-c2cc(C(=O)O)c(Cl)cc2F)c1=O
125 to 128 °C | CN(C(=O)CCCOc1ccc2c(c1)CN(CC(=O)O)C(N)=N2)C1CCCCC1
141 to 142 °C | CC(=Cc1c2n(c3ccncc13)CCC2)[N+](=O)[O-]
188 to 189 °C | CC(C)(C)[Si](C)(C)OC1C(n2ccc(=O)[nH]c2=O)OC(CO)C1(O)C#C[Si](C)(C)C (centres undefined)

melting point | Structure (SMILES)
162 to 164 °C | Cn1nnnc1CC(=O)c1cc(F)c(F)cc1N
94 to 95 °C | COC(=O)c1cc(OCc2ccccc2)cc(C(=O)OC)c1
178 to 179 °C | Nc1nc(/C(=N/OCC(=O)N2CCCCCC2)C(=O)O)cs1
165 to 166 °C | OCc1c(CN2CCN(c3ccc(Cl)cc3Cl)CC2)nc2ccc(Cl)cn12
141 to 142 °C | COC(=O)[C@H]1CC[C@@H](c2c(-c3ccccc3)n(C)c3ccccc32)CC1
125 °C | CCOCN1C(C)=C(C(=O)OCC)C(c2cccc([N+](=O)[O-])c2)C(C(=O)OCC)=C1C
148 to 150 °C | CCOC(=O)c1sc2ccc(Cl)cc2c1CBr
135 to 139 °C | Cc1ccc(C(=O)OC2CCC3(C)C(=CCC4C3CCC3(C)C(=NO)CCC43)C2)cc1 (centres undefined)
220 °C | Cc1cc(-c2ccc(C(F)(F)F)nc2)nc(-c2cccc(-c3cccc(S(N)(=O)=O)c3)c2)n1
190 to 194 °C | CC12CCC3c4ccc(O)cc4C(=O)C(Sc4ccc(Br)cc4)C3C1CCC2O (centres undefined)
84 to 86 °C | CCOCc1cc2ccccc2oc1=Nc1ccc(Cl)cc1
171 to 172 °C | CN1CCCCC1CCc1ccccc1NC(=O)c1ccccc1C(=O)O (centres undefined)
79.5 to 82.5 °C | CCCCCCCCCCOC(=O)CN(CP(=O)(ONC1CCCCC1)ONC1CCCCC1)C(=O)C(F)(F)F
148 to 150 °C | Cc1ccc(OCCCN2CCN(c3nc(N)nc(-c4cc(Cl)ccc4Cl)n3)CC2)cc1
155 to 157 °C | CC(=O)c1cccc(NC(=O)c2nnnn2Cc2ccccc2)c1O
184 to 187 °C | Cc1ccc2c(c1)C(OC(C)C)=C(C(=O)O)S2=O (centres undefined)
139 °C | Cc1nc2ccccn2c(=O)c1CCN1CCC(C(=O)c2ccc(F)cc2)CC1
184 to 187 °C | CCOC(=O)c1cc(-c2ccc(Cl)cc2)c(Cl)nc1NC=O
164 °C | C[C@H](NC(=O)OC(C)(C)C)C(=O)ON1C(=O)CCC1=O
88 °C | COC(=O)c1cc(C(=O)c2ccccc2)ccc1OC
112 to 115 °C | CCOC(=O)CCc1ccc(OCCN2CCCC2=O)cc1O
286 to 288 °C | O=C(Nc1ccc2[nH]c(=O)[nH]c2c1)C(=O)N1CCC(Oc2ccc(Cl)cc2)CC1
52 to 53 °C | COCOc1ccc(C=O)c(O)c1
166 to 170 °C | O=C(Cl)c1c(Cl)nc2ccc(Br)cc2c1-c1ccccc1

melting point | Structure (SMILES)
294 to 296 °C | O=c1c2c[nH]c3ccccc3c-2nn1-c1ccc(O)cc1
173 to 175 °C | O=C(O)CC(NS(=O)(=O)c1ccc2ccccc2c1)c1ccc2c(c1)OCO2 (centres undefined)
146 to 147 °C | CN1CCN(C)c2c(cccc2[N+](=O)[O-])C1=O
134 to 136 °C | Cn1c(CC#N)ccc1C(=O)c1ccc(F)cc1
180 to 181 °C | NC(=O)CCn1ccn(C2CCc3ccccc3C2)c1=S (centres undefined)
168 to 169 °C | COP(=O)(OC)c1ccc(-c2coc3ccc(-c4nnc(C)o4)cc23)cc1
88 °C | CC1CCCCN1C(=O)COc1nc(C(Cl)(Cl)Cl)ns1 (centres undefined)
191 to 194 °C | O=C1CCC(c2ccc(Cl)c(Cl)c2)c2ccccc2N1 (centres undefined)
> 300 °C | Nc1nc2c(ncn2/C=C2/CC2(CO)CO)c(=O)[nH]1
43 to 44 °C | O=C(CCCCl)c1ccc2ccccc2c1
75 to 80 °C | Cc1cc(C(Cc2ccc(CCCc3nc(-c4ccccc4)oc3C)cc2)C(=O)O)no1 (centres undefined)
89 °C | C=C(C)C(=O)NC(C)C
152 to 155 °C | COc1ccc2c(c1)N=C(N1CCN(C)CC1)c1cccc3c1N2CC3
102 to 104 °C | Fc1cc(F)c(-c2c(Cl)ncn2-c2ccc(Cl)cc2)c(F)c1
130 to 132 °C | NC(=S)Nc1cc[nH]n1
106 to 108 °C | CCCCCCc1ccc(C=CC(=O)c2ccc(OCC=C(C)C)cc2OCC(=O)O)cc1
145 to 146 °C | Cc1ccc(-c2ccc3ccccc3c2C(=O)N(C)C)cc1
54 to 56 °C | CC(C)N(CCSc1ccc(Cl)cc1)C(=O)Oc1ccccc1
82 °C | CC(C)OC(=Cn1cnnn1)c1ccc(Cl)cc1Cl
90 to 92 °C | COC(=O)C1C=CCN2C(=O)C(CCI)(Cc3ccccc3)C(=O)N12 (centres undefined)
187 to 190 °C | COc1ccc(N2CCN(c3cc4c(cc3-c3ccc(C)cc3)OC(C)(C)C4)CC2)cc1
262 to 265 °C | O=C1C2CCCN2c2ncccc2N1Cc1ccncc1 (centres undefined)
141 °C | CCCCOc1cc(/C=C(\OCC)C(=O)O)ccc1OCCc1ccc(NS(C)(=O)=O)cc1

Structure (SMILES) | melting point
NP(N)(=O)Oc1ccc2cccc(NS(=O)(=O)c3ccc([N+](=O)[O-])cc3)c2c1 | 234 to 235 °C
CCCc1c(C(=O)C(C)C)c2ccc(CC(=O)O)cc2n1Cc1cc2c(cc1Cl)OCO2 | 81 to 83 °C
O=Cc1ccc(-c2ccc(-c3cn([C@H]4CN5CCC4CC5)nn3)cc2)s1 | 228 °C
COc1cccc(OC)c1C(=O)P(=O)(CC(C)C)C(=O)c1c(C)cc(C)cc1C (centres undefined) | 105 to 106 °C
